This passage reports GI50 and TGI results from PubChem BioAssay (NCI).

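48-hour exposure; five concentrations; linearly interpolated endpoints. GI50 = concentration required for 50% inhibition of growth. TGI marks complete inhibition of growth.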

Holding throughout (assay): growth of human tumour cells (NCI), 48 h
Test [1] deals with SK-OV-3 ovarian.
Test [2] relates to CCRF-CEM leukemia.
The subject of test [3] is M14 melanoma.
In test [4] the test system is K-562 leukemia.
Test [5] has as its system NCI/ADR-RES ovarian.
In test [6] the test system is RXF 393 renal.
For test [7], the system named is SF-539 CNS.
Test [8] relates to TK-10 renal.
The test system of test [9] is NCI-H522 lung.
For test [10], the system named is MDA-MB-435.

Regarding `C=CCCC(=O)N1C=CC(=O)[C@H](O)[C@@H]1/C=C/c1ccccc1`, the GI50 was 18.6 µM in test [1]; 5.61 µM in test [2]; 5.17 µM in test [3]; 9.3 µM in [4]; 6.38 µM in test [5]; 29.9 µM in test [6]. Further, the GI50 in test [7] was 7.87 µM; in test [8], 21.5 µM; in [9], more than 32.5 µM; in test [10], 10.7 µM. The TGI in [1] was more than 32.5 µM; in test [2], more than 32.5 µM; in test [3], 16.8 µM; in test [4], more than 32.5 µM; in test [5] it was more than 32.5 µM; in test [6], more than 32.5 µM. Moreover, the TGI in test [7], in test [8], in [9] and in test [10] was more than 32.5 µM each time.
On to `COc1cc([C@@H]2c3cc4c(cc3C[C@H]3COC(=O)[C@@H]32)OCO4)cc2c1OCO2`, for which the TGI in test [1] is more than 100 µM; in [2] it was 97.7 µM; in test [3], more than 100 µM; in [4], more than 40 µM; in [5] it was less than 0.01 µM; in test [6], more than 100 µM. Besides, the TGI is less than 0.01 µM in [7], 3.48 µM in test [8], more than 100 µM in test [9] and less than 0.01 µM in test [10].
In the case of `CN(C)CCNc1nc2ccccc2c2c(=O)c3ccccc3sc12`, the GI50 in test [1] is 4.68 µM; in test [2], 1.92 µM; in test [3], 1.86 µM; in [4], 1.52 µM; in test [5] it was 1.96 µM; in test [6], 1.51 µM. Further, the GI50 in test [7] is 1.78 µM; in test [8], 2.52 µM; in test [9], 1.7 µM; in [10], 1.83 µM. Also, the TGI in [1] is 19 µM; in [2] it was 4.31 µM; in test [3] it was 3.62 µM; in test [4] it was 3.77 µM; in [5], 6.43 µM; in [6], 4.11 µM. Moreover, the TGI in [7] came out at 3.58 µM; in test [8] it was 6.15 µM; in test [9] it was 3.41 µM; in test [10], 3.42 µM.
As for `O=C(Nc1cccc(C(F)(F)F)c1)c1cc(Br)cc(Br)c1O`, the TGI in [1] was 9.38 µM; in [2], more than 10 µM; in test [3], more than 10 µM; in test [4], 7.18 µM; in test [5] it was 6.78 µM; in test [6], 9.12 µM. Besides, the TGI is 9.15 µM in test [7], 7.38 µM in test [8], 9.82 µM in [9] and more than 10 µM in test [10].
As for `COc1cc(/C=N\O)nc(-c2ccccn2)c1`, the TGI in test [1] was more than 100 µM; in test [2], more than 100 µM; in test [3], more than 45 µM; in test [4], more than 100 µM; in test [5], more than 49.6 µM; in test [6], more than 100 µM. Moreover, the TGI in test [7] was more than 32.8 µM; in test [8], more than 100 µM; in [9] it was 56.2 µM; in test [10] it was more than 100 µM.
Consider `CC[C@H](NC(=O)[C@H](CS(=O)(=O)CC1CC1)N[C@@H](c1ccc(F)cc1)C(F)(F)F)C(=O)C(=O)NC1CC1`, for which the GI50 in [1], in [2], in [3], in test [4], in test [5] and in [6] was more than 100 µM throughout. For the same molecule, the GI50 in [7], in [8], in test [9] and in test [10] was more than 100 µM throughout. The TGI in [1], in test [2], in test [3], in test [4], in [5] and in test [6] was more than 100 µM throughout. The TGI in [7], in test [8], in test [9] and in test [10] was more than 100 µM each time.
In the case of `CC(C)(C)C(=O)OCc1nc2cc3c(cc2c(=O)[nH]1)CCC3=O`, the GI50 in [1], in [2], in test [3], in [4], in test [5] and in [6] was more than 100 µM throughout. Also, the GI50 in [7], in test [8], in test [9] and in test [10] was more than 100 µM each time. The TGI in [1], in [2], in test [3], in test [4], in test [5] and in test [6] was more than 100 µM throughout. For the same molecule, the TGI in test [7], in test [8], in test [9] and in test [10] was more than 100 µM each time.
`COc1cc2c(cc1OC)-c1ncc3cc4c(cc3c1C2)OCO4`: the GI50 was 53 µM in test [1]; 6.36 µM in [2]; 19.6 µM in test [3]; 19 µM in test [4]; 24.8 µM in [5]; 50.2 µM in test [6]. Moreover, the GI50 in [7] was 23.4 µM; in [8], 43.2 µM; in test [9], 13.2 µM; in test [10], 63.4 µM. Moreover, the TGI is more than 100 µM in [1]; 21.4 µM in test [2]; 82.5 µM in [3]; more than 100 µM in test [4]; 49.6 µM in test [5]; more than 100 µM in [6]. Moreover, the TGI in test [7] was 56.1 µM; in [8] it was more than 100 µM; in test [9], 48.4 µM; in [10], more than 100 µM.
On to `COc1ccc2c(c1)CC[C@@H]1[C@@H]2CC[C@]2(C)C=C(/C=C/C(=O)c3ccccc3)C[C@@H]12`, for which the GI50 in test [1] was 20.8 µM; in test [2] it was 32.6 µM; in test [3] it was 16.6 µM; in test [4], 18.5 µM; in test [5], 17.6 µM; in test [6], 17.5 µM. Moreover, the GI50 was 17.4 µM in test [7], 21.3 µM in [8], 16 µM in test [9] and 18.4 µM in test [10]. For the same molecule, the TGI came out at 38.9 µM in test [1]; 84.7 µM in [2]; 34.3 µM in test [3]; 46.4 µM in [4]; 35.1 µM in test [5]; 34.5 µM in test [6]. Besides, the TGI in test [7] is 32.4 µM; in test [8] it was 39.3 µM; in test [9], 32.7 µM; in test [10], 36 µM.
